Assay results reported in publication PMC10033419, “Blocking NS3–NS4B interaction inhibits dengue virus in non-human primates” (Nature, 2023).
Values joined by “and” are separate entries in the source; they are usually repeats but may differ in a detail not shown here. Identical values can stand only once. Like-named read-outs stand apart in the source and are kept apart here.

How the values were obtained:
in vitro = conditions: dog
DENV-2/16681/eGFP = experiment: microbe, parasite or virus in culture; format: cell-based; conditions: Dengue virus
[1] = format: in vivo, rhesus macaques
From the text: WRAIR is fully accredited by AAALAC International.

RSV rgRSV224 = experiment: microbe, parasite or virus in culture; format: cell-based; conditions: human respiratory syncytial virus, HeLa
DENV-4 G2a Malaysia = experiment: DENV genotype panel RT-qPCR, Vero E6; format: cell-based; conditions: Dengue virus, DENV4, Vero C1008
Experimental: (§1) A total of 20 DENV strains, representing the available genotypes within the four DENV serotypes, were used in the in vitro genotype panel, from which 19 viruses were described previously in ref. [3] and one additional virus, DENV-1/45AZ5 (ref. [54]), was added.
(§2) A potential toxic effect on host cells was tested in parallel, while omitting virus infection, using the MTS/PMS method (Promega) for Vero cells, or by high-content imaging for C6/36 cells, as described previously. […] RT–qPCR data were analysed using the QuantStudio 12K Flex software (v.1.2.3) or SDS v.1.2 Applied Biosystems software. Inhibition values for antiviral molecules were plotted using KaleidaGraph plotting software (v.4.03, Synergy Software).

DENV-2 Sylvatic Malaysia = experiment: DENV genotype panel RT-qPCR, Vero E6; format: cell-based; conditions: Dengue virus, DENV2, Vero C1008
Experimental: as §1, §2

[2] = tested on: DENV-1 G5 France - Toulon; experiment: DENV genotype panel RT-qPCR, Vero E6; format: cell-based; conditions: Dengue virus, DENV1, Vero C1008
Experimental: as §1, §2

DENV-2 RL strain [3] = experiment: Antiviral assay, viral RNA RT-qPCR, C6/36 cells; format: cell-based
DENV-2/16681 = experiment: NHP DENV-2 study, plasma viral RNA RT-qPCR; set-up: species or system rhesus macaques (M. mulatta); conditions: rhesus monkey, in vivo
THP-1/DC-SIGN cells = experiment: ATPLite cell viability assay; format: cell-based, human
Experimental: (§3) In parallel, the toxicity was measured using an ATPLite cell viability luminescence assay (PerkinElmer). The assays were performed in three different cell types (Vero, Huh-7 and THP-1/DC-SIGN) as described in ref. [3] to exclude cell-specific activity of the compound.

[4] = ATPLite cell viability assay; format: cell-based, human; conditions: human, THP-1/DC-SIGN cells
Experimental: as §3

DENV-2 RL strain [5] = experiment: Day 3 viraemia model, high viral inoculum (10^6 PFU); format: in vivo, AG129 mice; conditions: for Av Log 10 (average): group average; for Av Log 10 (Ave/Med: median): group median; for Copy number / Log 10 (copy number): individual animals, listed as 64281802-AAA
[6] = Study 1+2+3 compiled data, 0,2 mg/kg/d
[7] = Study 1+2+3 compiled data, 0,6 mg/kg/d
[8] = Study 1+2+3 compiled data, 2 mg/kg/d

COc1cc(N[C@H](C(=O)c2c[nH]c3ccc(OC(F)(F)F)cc23)c2ccc(Cl)cc2OC)cc(S(C)(=O)=O)c1 [JNJ-1802]
CC90 (in vitro): 5380 nM | CC50 (in vitro; CC50): 2600 nM | CC50 (in vitro; CC50, Mean): 2630 nM | EC90 (DENV-2/16681/eGFP; DENV2, Huh-7, Huh-7, read-out: EC90): 0.53 ± 0.31 nM | EC90 (DENV-2/16681/eGFP; DENV2, Huh-7, read-out: EC90 Mean): 0.533 nM | Weight change (%) ([1]; Day 1, individual animals): -0.3571% and -0.3226% | Weight change (%) ([1]; Day 3, individual animals): -0.3571% | Weight change (%) ([1]; Day 5, individual animals): 0.3226% | Weight change (%) ([1]; Day 8, individual animals): 1.143% | Weight change (%) ([1]; Day 9, individual animals): -1.29% | Weight change (%) ([1]; Day 10, individual animals): 0.3226% | Weight change (%) ([1]; Day 29, individual animals): 1.711% | Weight change (%) ([1]; Day -2, individual animals): -0.3571% and 0.3226% | EC50 (RSV rgRSV224; read-out: EC50, Mean): 3180 nM | EC90 (RSV rgRSV224; read-out: EC90, Mean): 5460 nM | EC50 (DENV-4 G2a Malaysia): 0.82 ± 0.71 nM | EC90 (DENV-4 G2a Malaysia): 2.1 ± 1.7 nM | EC50 (DENV-2 Sylvatic Malaysia): 0.0634 ± 0.0022 nM | EC90 (DENV-2 Sylvatic Malaysia): 0.265 ± 0.029 nM | EC90 [2]: 1.02 ± 0.68 nM | EC50 ([2]; one of three values below threshold): < 0.23 nM | EC50 (DENV-2 RL strain [3]; C3/36 cells, DENV-2RL, EXP 1 and EXP 2, read-out: EC50, individual values): 1.34 nM and 1.19 nM and 1.38 nM | EC90 (DENV-2 RL strain [3]; C3/36 cells, DENV-2RL, EXP 1 and EXP 2, read-out: EC90, individual values): 7.33 nM and 7.51 nM and 5.46 nM | EC50 (DENV-2 RL strain [3]; Dengue virus, DENV2, C6/36, C3/36 cells, DENV-2RL, EXP 1 and EXP 2, read-out: EC50, individual values): 1.05 nM | EC90 (DENV-2 RL strain [3]; Dengue virus, DENV2, C6/36, C3/36 cells, DENV-2RL, EXP 1 and EXP 2, read-out: EC90, individual values): 5.52 nM | EC50 (DENV-2 RL strain [3]; Dengue virus, DENV2, C6/36, C3/36 cells, DENV-2RL, mean, read-out: EC50 Mean): 1.2 nM | EC90 (DENV-2 RL strain [3]; Dengue virus, DENV2, C6/36, C3/36 cells, DENV-2RL, mean, read-out: EC90 Mean): 6.46 nM | EC50 (DENV-2 RL strain [3]; Dengue virus, DENV2, C6/36, C6/36, read-out: EC50): 1.24 ± 0.14 nM | EC90 (DENV-2 RL strain [3]; Dengue virus, DENV2, C6/36, C6/36, read-out: EC90): 6.5 ± 1 nM | DENV RNA in plasma (DENV-2/16681): undetectable DENV RNA levels throughout the study period | Viral load Assay 1 FLAG (DENV-2/16681): BLOQ (key: BLOQ = Below limit of detection) | Viral load Assay 2 FLAG (DENV-2/16681): BLOQ (key: BLOQ = Below limit of detection) | Viral load Assay 2 FLAG (2nd column) (DENV-2/16681): BLOQ (key: BLOQ = Below limit of detection) | day first DENV-RNA positive (≥LLOQ) (DENV-2/16681): 5 | day first DENV-RNA positive (≥LLOQ), per animal (DENV-2/16681): 21 and 6 and 10 | peak viraemia (DENV-2/16681): comparable to the vehicle controls | CC50 (THP-1/DC-SIGN cells; individual data, read-out: CC50, individual data): > 500 nM | CC50 (THP-1/DC-SIGN cells; mean, read-out: CC50 Mean): > 500 nM | CC50 [4]: > 500 nM | viraemia day 3 p.i., average Log 10 (DENV-2 RL strain [5]; 0,3 mg/kg/d q.d.): 6.63 log10 viral RNA copies/mL | viraemia day 3 p.i., median Log 10 (DENV-2 RL strain [5]; 0,3 mg/kg/d q.d.): 6.66 log10 viral RNA copies/mL | viraemia day 3 p.i., average Log 10 (DENV-2 RL strain [5]; 3 mg/kg/d q.d.): 3.84 log10 viral RNA copies/mL | viraemia day 3 p.i., median Log 10 (DENV-2 RL strain [5]; 3 mg/kg/d q.d.): 4.27 log10 viral RNA copies/mL | mice with undetectable viral RNA (DENV-2 RL strain [5]; 20 mg per kg per day b.i.d.): 13 out of 14 | mice with undetectable viral RNA (DENV-2 RL strain [5]; 30 mg per kg q.d.): five out of eight | viraemia day 3 p.i., average Log 10 (DENV-2 RL strain [5]; 30 mg/kg/d q.d.): 3.09 log10 viral RNA copies/mL | viraemia day 3 p.i., median Log 10 (DENV-2 RL strain [5]; 30 mg/kg/d q.d.): 2.59 log10 viral RNA copies/mL | mice with undetectable viral RNA (DENV-2 RL strain [5]; 60 mg per kg per day b.i.d.): four out of seven | Av Log 10 (average) (DENV-2 RL strain [5]; [6]): 5.92 | Av Log 10 (Ave/Med: median) (DENV-2 RL strain [5]; [6]): 6.05 | Copy number (DENV-2 RL strain [5]; [6]): 1.86E+06 and 1.20E+06 and 1.13E+06 and 8.80E+05 and 2.24E+05 and 2.37E+06 and 1.58E+06 and 7.37E+04 and 5.97E+06 and 8.67E+05 and 1.42E+06 and 1.06E+06 and 9.43E+04 | Log 10 (copy number) (DENV-2 RL strain [5]; [6]): 6.27 and 6.08 and 6.05 and 5.94 and 5.35 and 6.38 and 6.20 and 4.87 and 6.78 and 6.15 and 6.03 and 4.97 | Av Log 10 (average) (DENV-2 RL strain [5]; [7]): 4.22 | Av Log 10 (Ave/Med: median) (DENV-2 RL strain [5]; [7]): 4.52 | Copy number (DENV-2 RL strain [5]; [7]): 3.93E+02 | Log 10 (copy number) (DENV-2 RL strain [5]; [7]): 2.59 | Av Log 10 (average) (DENV-2 RL strain [5]; [8]): 4.68 | Av Log 10 (Ave/Med: median) (DENV-2 RL strain [5]; [8]): 4.60
